# Literature values, collected in patent publication US20190022132A1, “TREATMENT OR PREVENTION OF PULMONARY CONDITIONS WITH CARBON MONOXIDE” (PROTERRIS, INC., priority 2013, published 2019).
# What was measured:
# [1] = CO alveolar concentration of 25 ppm
# [2] = tested on: models of acute lung injury; settings: early timepoints; effect not sustained beyond the first 6 hours
# brain = settings: inhalation, rats
# [3] = Phase I and Phase II human trials
structure (smiles),measurement,setting,value
"[C-]#[O+] [CO, carbon monoxide]",time to reach an equilibration point,[1],about 20 hours
same,airway neutrophil count and lung injury,[2],decrease airway neutrophil count and lung injury at early timepoints
same,oxidative damage in the brain,brain,can cause oxidative damage in the brain
same,tolerability,[3],well tolerated
